Experimental data reported in patent US10160747B2, “Compounds and methods for kinase modulation, and indications therefor” (Plexxikon Inc., priority 2016, dated 2018).

Columns and labels:
[1] = system: MOLM-14 F691L (endogenous FLT3 ITD and transfected FLT3 F691L); test: MOLM-14 F691L cell proliferation assay (CellTiter-Glo); assay type: cell-based; settings: Homo sapiens, MOLM-14, 72 h; 3 d growth, GMean
In short: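 Three-day proliferation at 37 °C/5% CO2 of FLT3-ITD MOLM-14 lines with D835Y or F691L mutation, seeded 1×10^4 per well. Compounds at eight points, top 1 μM final, 0.2% DMSO. ATP luminescence (CellTiter-Glo) gives IC50.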

FLT3-D835Y = target: T1, FLT3-D835Y (Homo sapiens, UniProt P36888, D835Y); test: FLT3-D835Y recombinant enzyme kinase assay (AlphaScreen); assay type: biochemical; settings: 8 pt, GMean
T1 construct: purchased Invitrogen PV3967
T1 sequence (P36888 27-993 D835Y): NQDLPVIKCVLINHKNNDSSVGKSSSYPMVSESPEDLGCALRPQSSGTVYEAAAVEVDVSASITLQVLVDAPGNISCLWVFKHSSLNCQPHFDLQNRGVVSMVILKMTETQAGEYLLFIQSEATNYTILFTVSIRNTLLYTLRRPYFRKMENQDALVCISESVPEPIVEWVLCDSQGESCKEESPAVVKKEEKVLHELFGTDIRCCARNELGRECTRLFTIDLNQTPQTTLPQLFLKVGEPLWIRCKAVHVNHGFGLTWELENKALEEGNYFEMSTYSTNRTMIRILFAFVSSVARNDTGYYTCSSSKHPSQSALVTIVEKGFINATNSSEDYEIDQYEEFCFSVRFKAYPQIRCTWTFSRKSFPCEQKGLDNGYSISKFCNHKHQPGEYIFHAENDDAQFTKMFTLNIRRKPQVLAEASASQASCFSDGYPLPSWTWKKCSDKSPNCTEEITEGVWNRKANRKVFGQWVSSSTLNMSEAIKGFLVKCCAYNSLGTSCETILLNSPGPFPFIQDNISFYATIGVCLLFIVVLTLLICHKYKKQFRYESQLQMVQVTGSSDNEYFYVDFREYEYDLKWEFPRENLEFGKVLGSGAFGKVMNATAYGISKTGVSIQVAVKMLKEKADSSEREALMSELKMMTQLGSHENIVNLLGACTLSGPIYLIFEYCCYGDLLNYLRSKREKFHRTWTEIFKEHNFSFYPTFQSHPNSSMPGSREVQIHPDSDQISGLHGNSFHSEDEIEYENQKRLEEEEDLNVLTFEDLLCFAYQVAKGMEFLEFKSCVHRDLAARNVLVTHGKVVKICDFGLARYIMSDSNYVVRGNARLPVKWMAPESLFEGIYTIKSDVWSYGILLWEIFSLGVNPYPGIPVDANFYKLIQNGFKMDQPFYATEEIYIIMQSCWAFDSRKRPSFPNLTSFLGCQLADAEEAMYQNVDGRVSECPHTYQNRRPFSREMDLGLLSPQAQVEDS
Method: In order to determine the effect of compounds on FLT3 catalytic activity, kinase assays using recombinant enzymes and AlphaScreen® technology have been established. The catalytic activity of c-kit activity was also measured to determine selectivity of the compounds. When the kinases are catalytically active, they phosphorylate a biotinylated peptide substrate on tyrosine residues. Using AlphaScreen® technology, the ability of the compounds to affect the catalytic activity of the kinases can be measured quantitatively. The peptide substrate is immobilized by the AlphaScreen® Streptavidin Donor beads and, upon phosphorylation by a tyrosine kinase, can bind to AlphaScreen® Anti-Phosphotyrosine (PY20) Acceptor beads. Upon excitation of these beads with laser light at 680 nm, singlet oxygen is produced. This singlet oxygen is rapidly quenched, unless the AlphaScreen® Anti-Phosphotyrosine (PY20) Acceptor beads are in close proximity, in which case a proximity signal can be measured at 580 nm. In the presence of catalytic activity, there is a very strong proximity signal. Selective kinase inhibitors affect a decrease in this proximity signal through a decrease in tyrosine phosphorylation of the peptide substrate.
The assay was performed as summarized below.
Poly (Glu4-Tyr) Peptide, biotin conjugate [Biotin-GG(EEEEY)10EE] (SEQ ID NO: 4)
Final concentration=30 nM
Adenosine Triphosphate (ATP)
Final concentration for IC50 determination=10 μM (FLT3-D835Y or FLT3-ITD) or 100 μM (c-KIT)
AlphaScreen® Phosphotyrosine (PY20) Assay Kit
Final concentration=10 μg/mL
Dilute compounds in DMSO to 20× final concentration.
Add 1 μL of compound to each well of 384 well reaction plate (Perkin Elmer #6005359).
Mix enzyme and Poly (Glu4-Tyr) Peptide substrate at 1.33× final concentration in assay buffer.
Mix ATP at 5× final concentration in assay buffer.
Add 15 μL enzyme/substrate mixture to the reaction plate.
Add 4 μL of ATP to the reaction plate.
Mix Streptavidin Donor beads at 6× final concentration in Stop/Detection buffer.
Add 5 μL Streptavidin Donor beads to the reaction plate. Centrifuge 1 minute, shake to mix, and incubate at room temperature for 20 minutes.
Mix Anti-Phosphotyrosine (PY20) Acceptor beads at 6× final concentration in Stop/Detection buffer.
Add 5 μL Anti-Phosphotyrosine (PY20) beads to the reaction plate.
Centrifuge 1 minute, shake to mix, and incubate at room temperature for 60 minutes.
Read plate on Wallac EnVision™ 2103 Multilabel Reader.

| Structure (SMILES) | IC50 [1] [µM] | IC50 (FLT3-D835Y) [µM] |
| --- | --- | --- |
| COc1nn(C[C@H](C)O)cc1Nc1ncc(-c2ccc(CC(=O)Nc3cnc(C)c(C(F)(F)F)c3)cc2)cn1 [Compound P-0180, 2-[4-[2-[[1-[(2S)-2-hydroxypropyl]-3-methoxy-pyrazol-4-yl]amino]pyrimidin-5-yl]phenyl]-N-[6-methyl-5-(trifluoromethyl)-3-pyridyl]acetamide] | 0.0001 to 10 | 0.0001 to 10 |
| COCCn1cc(Nc2ncc(-c3ccc(CC(=O)Nc4cnc(C)c(C(F)(F)F)c4)cc3)cn2)cn1 [Compound P-0179, 2-[4-[2-[[1-(2-methoxyethyl)pyrazol-4-yl]amino]pyrimidin-5-yl]phenyl]-N-[6-methyl-5-(trifluoromethyl)-3-pyridyl]acetamide] | 0.0001 to 10 | 0.0001 to 10 |
| Cn1cc(Nc2ncc(-c3ccc(CC(=O)Nc4ccc(C(C)(C)C#N)nc4)cc3)cn2)cn1 [Compound P-0146, N-[6-(1-cyano-1-methyl-ethyl)-3-pyridyl]-2-[4-[2-[(1-methylpyrazol-4-yl)amino]pyrimidin-5-yl]phenyl]acetamide] | 0.0001 to 10 | 0.0001 to 10 |
| Cn1cc(Nc2ncc(-c3ccc(CC(=O)Nc4ccc(C(C)(C)C#N)nc4)c(F)c3)cn2)cn1 [Compound P-0108, N-[6-(1-cyano-1-methyl-ethyl)-3-pyridyl]-2-[2-fluoro-4-[2-[(1-methylpyrazol-4-yl)amino]pyrimidin-5-yl]phenyl]acetamide] | 0.0001 to 10 | 0.0001 to 10 |
| Cn1cnc(Nc2ncc(-c3ccc(CC(=O)Nc4cc(C(C)(F)F)ccn4)cc3)cn2)c1 [Compound P-0169, N-[4-(1,1-difluoroethyl)-2-pyridyl]-2-[4-[2-[(1-methylimidazol-4-yl)amino]pyrimidin-5-yl]phenyl]acetamide] | 0.0001 to 10 | 0.0001 to 10 |
| Cn1cc(Nc2ncc(-c3ccc(CC(=O)Nc4cnc(Cl)c(C(F)(F)F)c4)c(F)c3)cn2)cn1 [Compound P-0092, N-[6-chloro-5-(trifluoromethyl)-3-pyridyl]-2-[2-fluoro-4-[2-[(1-methylpyrazol-4-yl)amino]pyrimidin-5-yl]phenyl]acetamide] | 0.0001 to 10 | 0.0001 to 10 |
| Cn1cc(Nc2ncc(-c3ccc(CC(=O)Nc4ccc(C(F)(F)F)cn4)c(F)c3)cn2)cn1 [Compound P-0106, 2-[2-fluoro-4-[2-[(1-methylpyrazol-4-yl)amino]pyrimidin-5-yl]phenyl]-N-[5-(trifluoromethyl)-2-pyridyl]acetamide] | 0.0001 to 10 | 0.0001 to 10 |
| COc1cncc(NC(=O)Cc2ccc(-c3cnc(Nc4cnn(C)c4)nc3)cc2)c1 [Compound P-0133, N-(5-methoxy-3-pyridyl)-2-[4-[2-[(1-methylpyrazol-4-yl)amino]pyrimidin-5-yl]phenyl]acetamide] | 0.0001 to 10 | 0.0001 to 10 |
| Cn1cc(Nc2ncc(-c3ccc(CC(=O)Nc4ccc(C(C)(C)C)nc4)cc3)cn2)cn1 [Compound P-0143, N-(6-tert-butyl-3-pyridyl)-2-[4-[2-[(1-methylpyrazol-4-yl)amino]pyrimidin-5-yl]phenyl]acetamide] | 0.0001 to 10 | 0.0001 to 10 |

Second part, the compound after the results:

| IC50 [1] [µM] | IC50 (FLT3-D835Y) [µM] | Structure (SMILES) |
| --- | --- | --- |
| 0.0001 to 10 | 0.0001 to 10 | Cn1cc(Nc2ncc(-c3ccc(CC(=O)Nc4cnc(Cl)c(C(F)(F)F)c4)cc3)cn2)cn1 [Compound P-0145, N-[6-chloro-5-(trifluoromethyl)-3-pyridyl]-2-[4-[2-[(1-methylpyrazol-4-yl)amino]pyrimidin-5-yl]phenyl]acetamide] |
| 0.0001 to 10 | 0.0001 to 10 | O=C(Cc1ccc(-c2cnc3[nH]c(-c4ccnc(N5CCOCC5)c4)cc3c2)cn1)Nc1ccnc(C(F)(F)F)c1 [Compound P-0181, 2-[5-[2-(2-morpholino-4-pyridyl)-1H-pyrrolo[2,3-b]pyridin-5-yl]-2-pyridyl]-N-[2-(trifluoromethyl)-4-pyridyl]acetamide] |
| 0.0001 to 10 | 0.0001 to 10 | N#Cc1cc(-c2cc3cc(-c4ccc(CC(=O)Nc5ccnc(C(F)(F)F)c5)nc4)cnc3[nH]2)ccn1 [Compound P-0182, 2-[5-[2-(2-cyano-4-pyridyl)-1H-pyrrolo[2,3-b]pyridin-5-yl]-2-pyridyl]-N-[2-(trifluoromethyl)-4-pyridyl]acetamide] |
| 0.0001 to 10 | 0.0001 to 10 | Cn1cc(Nc2ncc(-c3ccc(CC(=O)Nc4cc(C(F)(F)F)ccn4)cc3)cn2)cn1 [Compound P-0139, 2-[4-[2-[(1-methylpyrazol-4-yl)amino]pyrimidin-5-yl]phenyl]-N-[4-(trifluoromethyl)-2-pyridyl]acetamide] |
| 0.0001 to 10 | 0.0001 to 10 | Cn1cc(Nc2ncc(-c3ccc(CC(=O)Nc4ccc(C(F)(F)F)nc4)c(F)c3)cn2)cn1 [Compound P-0110, 2-[2-fluoro-4-[2-[(1-methylpyrazol-4-yl)amino]pyrimidin-5-yl]phenyl]-N-[6-(trifluoromethyl)-3-pyridyl]acetamide] |
| 0.0001 to 10 | 0.0001 to 10 | Cn1cc(Nc2ncc(-c3ccc(CC(=O)Nc4ccnc(C(F)(F)F)n4)cc3)cn2)cn1 [Compound P-0137, 2-[4-[2-[(1-methylpyrazol-4-yl)amino]pyrimidin-5-yl]phenyl]-N-[2-(trifluoromethyl)pyrimidin-4-yl]acetamide] |
| 0.0001 to 10 | 0.0001 to 10 | O=C(Cc1ccc(-c2cnc3[nH]c(-c4ccccc4)cc3c2)cc1F)Nc1ccnc(C(F)(F)F)c1 [Compound P-0004, 2-[2-fluoro-4-(2-phenyl-1H-pyrrolo[2,3-b]pyridin-5-yl)phenyl]-N-[2-(trifluoromethyl)-4-pyridyl]acetamide] |
| 0.0001 to 10 | 0.0001 to 10 | Cn1cc(Nc2ncc(-c3ccc(CC(=O)Nc4ccnc(C(F)(F)F)c4)cc3)cn2)cn1 [Compound P-0134, 2-[4-[2-[(1-methylpyrazol-4-yl)amino]pyrimidin-5-yl]phenyl]-N-[2-(trifluoromethyl)-4-pyridyl]acetamide] |
| 0.0001 to 10 | 0.0001 to 10 | O=C(Cc1ccc(-c2cnc3[nH]c(-c4ccc(N5CCOCC5)nc4)cc3c2)c(F)c1)Nc1cc(C(F)(F)F)ccn1 [Compound P-0192, 2-[3-fluoro-4-[2-(6-morpholino-3-pyridyl)-1H-pyrrolo[2,3-b]pyridin-5-yl]phenyl]-N-[4-(trifluoromethyl)-2-pyridyl]acetamide] |
| 0.0001 to 10 | 0.0001 to 10 | Cc1ncc(NC(=O)Cc2ccc(-c3cnc(Nc4cn(C)cn4)nc3)cc2)cc1C(F)(F)F [Compound P-0150, 2-[4-[2-[(1-methylimidazol-4-yl)amino]pyrimidin-5-yl]phenyl]-N-[6-methyl-5-(trifluoromethyl)-3-pyridyl]acetamide] |
| 0.0001 to 10 | 0.0001 to 10 | O=C(Cc1ccc(-c2cnc3[nH]c(-c4ccccc4)cc3c2)c(F)c1)Nc1cccc(C(F)(F)F)c1 [Compound P-0003, 2-[3-fluoro-4-(2-phenyl-1H-pyrrolo[2,3-b]pyridin-5-yl)phenyl]-N-[3-(trifluoromethyl)phenyl]acetamide] |
